The numbers were not newly measured in US20230041069A1, “ELECTROLYTE FOR ELECTROCHEMICAL GAS SENSOR AND ELECTROCHEMICAL GAS SENSOR INCLUDING THE SAME” (Samsung Electronics Co., Ltd., priority 2021, published 2023), which cites them from elsewhere.

Molecules are shown by their SMILES.

As for `CCn1cc[n+](C)c1.N#C[N-]C#N` [compound 6, 1-Ethyl-3-methylimidazolium dicyanamide], the “pKa of an anion's conjugate acid” value is listed as 5.
